Measured values from patent US20210323977A1, “PYRROLIDINYL AMIDE COMPOUNDS FOR THE TREATMENT OF AUTOIMMUNE DISEASE” (Hoffmann-La Roche Inc., priority 2018, published 2021).

Biological target: T1, human TLR9 (Homo sapiens, UniProt Q9NR96)
T1 sequence (Q9NR96 26-1032): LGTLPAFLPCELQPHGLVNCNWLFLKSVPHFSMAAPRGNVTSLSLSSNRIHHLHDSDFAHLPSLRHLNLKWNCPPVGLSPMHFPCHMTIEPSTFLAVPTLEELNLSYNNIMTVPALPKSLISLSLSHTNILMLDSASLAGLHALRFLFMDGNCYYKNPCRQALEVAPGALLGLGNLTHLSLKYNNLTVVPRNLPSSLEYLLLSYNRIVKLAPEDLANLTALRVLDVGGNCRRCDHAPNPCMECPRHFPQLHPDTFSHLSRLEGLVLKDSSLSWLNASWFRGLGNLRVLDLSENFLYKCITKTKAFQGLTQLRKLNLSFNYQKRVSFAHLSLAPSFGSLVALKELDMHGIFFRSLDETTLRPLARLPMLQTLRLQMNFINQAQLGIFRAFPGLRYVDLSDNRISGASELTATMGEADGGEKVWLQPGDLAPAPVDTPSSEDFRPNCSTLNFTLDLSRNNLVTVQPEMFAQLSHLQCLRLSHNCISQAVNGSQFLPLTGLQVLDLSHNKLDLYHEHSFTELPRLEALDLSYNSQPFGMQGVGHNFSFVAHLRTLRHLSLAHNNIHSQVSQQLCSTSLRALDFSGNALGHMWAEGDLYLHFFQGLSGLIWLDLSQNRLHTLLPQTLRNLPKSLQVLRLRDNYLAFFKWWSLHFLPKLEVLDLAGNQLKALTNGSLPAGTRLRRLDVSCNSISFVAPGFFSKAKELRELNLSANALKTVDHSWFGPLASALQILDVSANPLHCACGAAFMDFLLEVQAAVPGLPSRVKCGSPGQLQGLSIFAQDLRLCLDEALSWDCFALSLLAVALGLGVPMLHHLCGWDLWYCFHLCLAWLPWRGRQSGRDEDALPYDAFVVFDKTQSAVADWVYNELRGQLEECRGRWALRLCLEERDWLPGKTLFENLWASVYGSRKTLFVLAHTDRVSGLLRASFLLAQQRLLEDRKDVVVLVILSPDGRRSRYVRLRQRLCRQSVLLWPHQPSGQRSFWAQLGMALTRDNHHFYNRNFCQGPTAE
Assay: HEK293-Blue-hTLR-9 cells assay
Format: cell-based
Details: HEK293-Blue-hTLR9 cells, SEAP reporter, ODN2006 stimulation, 20 hrs
Excerpt: HEK293-Blue-hTLR-9 Cells Assay:
A stable HEK293-Blue-hTLR-9 cell line was purchased from InvivoGen (Cat. #: hkb-htlh9, San Diego, Calif., USA). These cells were originally designed for studying the stimulation of human TLR9 by monitoring the activation of NF-κB. A SEAP (secreted embryonic alkaline phosphatase) reporter gene was placed under the control of the IFN-β minimal promoter fused to five NF-κB and AP-1-binding sites. The SEAP was induced by activating NF-κB and AP-1 via stimulating HEK-Blue hTLR9 cells with TLR9 ligands. Therefore the reporter expression was declined by TLR9 antagonist under the stimulation of a ligand, such as ODN2006 (Cat. #: tlrl-2006-1, Invivogen, San Diego, Calif., USA), for incubation of 20 hrs. The cell culture supernatant SEAP reporter activity was determined using QUANTI-Blue™ kit (Cat. #: rep-qb1, Invivogen, San Diego, Calif., USA) at a wavelength of 640 nm, a detection medium that turns purple or blue in the presence of alkaline phosphatase.
HEK293-Blue-hTLR9 cells were incubated at a density of 250,000-450,000 cells/mL in a volume of 170 μL in a 96-well plate in Dulbecco's Modified Eagle's medium (DMEM) containing 4.5 g/L glucose, 50 U/mL penicillin, […], […], 2 mM L-glutamine, 10% (v/v) heat-inactivated fetal bovine serum with addition of 20 sL test compound in a serial dilution in the presence of final DMSO at 1% and 10 sL of 20 uM ODN2006 in above DMEM, perform incubation under 37° C. in a CO2 incubator for 20 hrs. Then 20 sL of the supernatant from each well was incubated with 180 μL Quanti-blue substrate solution at 37° C. for 2 hrs and the absorbance was read at 620-655 nm using a spectrophotometer. The signalling pathway that TLR9 activation leads to downstream NF-x3B activation has been widely accepted, and therefore similar reporter assay was modified for evaluating TLR9 antagonist.

Compound	IC50
N#Cc1ccc(N2C[C@@H](C(F)(F)F)[C@H](C(=O)N[C@H]3CNC[C@H]3F)C2)c2cccnc12 [Example 47, Trans-1-(8-cyano-5-quinolyl)-N-[(3S,4R)-4-fluoropyrrolidin-3-yl]-4-(trifluoromethyl)pyrrolidine-3-carboxamide]	23.1 µM
C[C@H]1CN(c2ccc(Cl)c3ncccc23)C[C@@H]1C(=O)NC1CCN(C)CC1 [Example 50, (3R,4R)-1-(8-chloro-5-quinolyl)-4-methyl-N-(1-methyl-4-piperidyl)pyrrolidine-3-carboxamide]	3.4 µM
CN1CCCC(CNC(=O)C2CN(c3ccc(C#N)c4ncccc34)CC23CC3)C1 (centres unmarked) [Example 51, 5-(8-Cyano-5-quinolyl)-N-[(1-methyl-3-piperidyl)methyl]-5-azaspiro[2.4]heptane-7-carboxamide]	2 µM
C[C@@H]1CN(c2ccc(C#N)c3ncccc23)C[C@H]1C(=O)N[C@H]1CNC[C@H]1F [Example 56, Trans-1-(8-cyano-5-quinolyl)-N-[(3S,4R)-4-fluoropyrrolidin-3-yl]-4-methyl-pyrrolidine-3-carboxamide]	18.6 µM
C[C@H]1CN(c2ccc(C#N)c3nccnc23)C[C@@H]1C(=O)NC1CCN(C2CCNCC2)CC1 [Example 60, (3R,4R)-1-(8-cyanoquinoxalin-5-yl)-4-methyl-N-[1-(4-piperidyl)-4-piperidyl]pyrrolidine-3-carboxamide]	3.2 µM
